Here are results for 2 compounds from paper PMC12526720, “Hydralazine inhibits cysteamine dioxygenase to treat preeclampsia and senesce glioblastoma” (Science Advances, 2024).

Where a name gives a salt, the structure may show the parent alone.

The target of assay [1] is T1, 2-aminoethanethiol dioxygenase (ADO) (Homo sapiens, UniProt Q96SZ5).
T1 construct: WT hADO (NP_116193.2), His6 tag cleaved with TEV
T1 sequence (Q96SZ5 1-270): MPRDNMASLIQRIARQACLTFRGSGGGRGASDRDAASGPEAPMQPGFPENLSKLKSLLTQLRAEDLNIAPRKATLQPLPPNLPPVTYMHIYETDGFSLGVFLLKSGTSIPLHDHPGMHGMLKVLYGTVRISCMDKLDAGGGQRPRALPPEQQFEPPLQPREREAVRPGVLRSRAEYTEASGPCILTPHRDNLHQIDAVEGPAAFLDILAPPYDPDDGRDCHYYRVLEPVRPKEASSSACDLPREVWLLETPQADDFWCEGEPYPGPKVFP
The assay can be described thus: O2 consumption (oxygen electrode) with purified Fe(II)•ADO, global fit; EPR of Co(II)•ADO also supports binding. Type of assay: biochemical.

A further assay concerns the target T2, mouse ADO (Mus musculus, UniProt Q6PDY2).
T2 construct: endogenous
T2 sequence (Q6PDY2 1-256): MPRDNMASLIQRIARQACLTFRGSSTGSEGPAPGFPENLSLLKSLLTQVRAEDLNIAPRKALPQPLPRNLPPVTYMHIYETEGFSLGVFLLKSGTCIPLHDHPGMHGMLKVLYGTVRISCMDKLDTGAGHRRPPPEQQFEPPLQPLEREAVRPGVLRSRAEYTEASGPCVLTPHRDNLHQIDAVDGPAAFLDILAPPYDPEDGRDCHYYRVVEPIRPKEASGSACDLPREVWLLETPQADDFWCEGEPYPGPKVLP
The experiment in a line: quantitative chemoproteomics in RAW […] and Neuro 2a cells, and in mouse heart and brain. Type of assay: cell-based.

`NNc1nncc2ccccc12` [HYZ, Hydralazine] displayed a Ki in assay [1] of 2480 ± 420 nM.
On to `C#CCOCc1ccc2c(NN)nncc2c1` [HYZyne, 1-hydrazineyl-6-((prop-2-yn-1-yloxy)methyl)phthalazine hydrochloride], for which the “quantitative chemoproteomics in RAW 264.7 and Neuro 2a cells, and in mouse heart” value on mouse ADO is “mouse ADO was also identified as a primary, high-reactivity, and high-stoichiometry target of HYZyne in both mouse cell types”.

The term Ki denotes the equilibrium dissociation constant of an inhibitor or competing ligand from its target. Read a low Ki as a stronger hold on the target.
